The values that follow come from US9060514B2, “Efficacy-enhancing agent composition for agricultural chemicals” (priority 2010, dated 2015).

Molecules are shown by their SMILES.

This series in a line: Flash point of solvents. Format: physicochemical. Particulars: measured with Cleveland open cup tester or value from 15509 chemical products. An excerpt:
A flash point was a measured value (with a Cleveland open cup flashpoint tester or a value described in “15509 no Kagaku Seihin (15509 chemical products)” (2009, Jan., 27, Chemical Daily Co., Ltd.). Among solvents used in Comparative Examples, for those having a structure corresponding to the formula (C1), meanings of items in the formula (C1) were shown for convenience.
On to `CCCCC(CC)CO` (stereo not drawn) [2-ethyl-l-hexanol], for which the Flash point stood at 78 °C. For `COCCOCCOC` [Diethylene glycol dimethyl ether], the Flash point came out at 56 °C. The value for `CCCCC(CC)COCCOCCO` (stereo not drawn) [Diethylene glycol mono2-ethylhexyl ether] was 151 °C; that for `OCCOCCO` [Diethylene glycol] was 138 °C; that for `CCCCOCCOCCOCCCC` [Diethyleneglycol dibutyl ether] was 122 °C.

`C[S+](C)[O-]` [Dimethylsulfoxide] had a Flash point of 95 °C. With `CCOCCOCCO` [Ethyl carbitol], the Flash point came out at 102 °C. The value for `OCCO` [Ethylene glycol] was 120 °C; that for `CC(C)CO` [Isobutanol] was 28 °C; that for `CC(C)O` [Isopropanol] was 12 °C. Next, `COCCOCCO` [Methyl carbitol]: 105 °C; `COCCO` [Methyl cellosolve]: 39 °C; `COCC(C)O` (stereo not drawn) [Propylene glycol monomethyl ether]: 32 °C. The value for `CC(O)CO` (stereo not drawn) [Propylene glycol] was 99 °C; that for `CCCCOCCOCCO` [n-Butyl carbitol] was 120 °C.
